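The compound was tested at five concentrations on cells cultured in 96-well plates, with a 48-hour exposure period. Here, GI50 denotes the concentration required for 50% inhibition of growth.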 Activity calls are given as the source filed them. Rule as the data show it: active = GI50 up to about 1.1 µM and inactive = higher.
Legend:
Experiment in all cases: growth of human tumour cells (NCI), 48 h
NCI-H522 = tested on: NCI-H522
Malme-3M = tested on: Malme-3M
SF-295 = tested on: SF-295
SNB-75 = tested on: SNB-75
OVCAR-3 = tested on: OVCAR-3
M14 = tested on: M14
A498 = tested on: A498
SF-268 = tested on: SF-268
K562 = tested on: K562
U-251 = tested on: U-251
OVCAR-4 = tested on: OVCAR-4
SW-620 = tested on: SW-620
OVCAR-8 = tested on: OVCAR-8
IGROV-1 = tested on: IGROV-1
NCI-H23 = tested on: NCI-H23
HT-29 = tested on: HT-29
PC-3 = tested on: PC-3
SN12C = tested on: SN12C
TK-10 = tested on: TK-10
CCRF-CEM = tested on: CCRF-CEM

Compound: Clc1ccc(-c2nn3c(COc4ccc(OCc5nnc6sc(-c7ccc(Cl)cc7)nn56)c(Cl)c4)nnc3s2)cc1
- GI50 (NCI-H522): 15.6 µM (inactive)
- GI50 (Malme-3M): 37.3 µM (inactive)
- GI50 (SF-295): 26.5 µM (inactive)
- GI50 (SNB-75): 12.7 µM (inactive)
- GI50 (OVCAR-3): 45.4 µM (inactive)
- GI50 (M14): 31.7 µM (inactive)
- GI50 (A498): 32.7 µM (inactive)
- GI50 (SF-268): 15.6 µM (inactive)
- GI50 (K562): 25.1 µM (inactive)
- GI50 (U-251): 21.8 µM (inactive)
- GI50 (OVCAR-4): 25.5 µM (inactive)
- GI50 (SW-620): 24 µM (inactive)
- GI50 (OVCAR-8): 22 µM (inactive)
- GI50 (IGROV-1): 18.9 µM (inactive)
- GI50 (NCI-H23): 21.1 µM (inactive)
- GI50 (HT-29): 17.5 µM (inactive)
- GI50 (PC-3): 31 µM (inactive)
- GI50 (SN12C): > 100 µM (inactive)
- GI50 (TK-10): 17.5 µM (inactive)

Compound: Fc1ccc(C(OCCN2CC3CC2CN3)c2ccc(F)cc2)cc1 (stereo not drawn)
- GI50 (NCI-H522): 47.3 µM (inactive)
- GI50 (Malme-3M): 16.7 µM (inactive)
- GI50 (SF-295): 83.2 µM (inactive)
- GI50 (SNB-75): 66.4 µM (inactive)
- GI50 (OVCAR-3): > 100 µM (inactive)
- GI50 (A498): 44.9 µM (inactive)
- GI50 (SF-268): > 100 µM (inactive)
- GI50 (K562): 36 µM (inactive)
- GI50 (U-251): 48.5 µM (inactive)
- GI50 (OVCAR-4): > 100 µM (inactive)
- GI50 (SW-620): > 100 µM (inactive)
- GI50 (OVCAR-8): > 100 µM (inactive)
- GI50 (IGROV-1): 53.3 µM (inactive)
- GI50 (NCI-H23): > 100 µM (inactive)
- GI50 (PC-3): 59.2 µM (inactive)
- GI50 (CCRF-CEM): 35.3 µM (inactive)
- GI50 (TK-10): 32.8 µM (inactive)

Compound: O=c1c(-c2ccccc2)c(SCCCN2CCN(c3cccc(Cl)c3)CC2)n(-c2ccccc2)c(=S)n1-c1ccccc1
- GI50 (NCI-H522): > 100 µM (inactive)
- GI50 (Malme-3M): > 100 µM (inactive)
- GI50 (SF-295): > 100 µM (inactive)
- GI50 (SNB-75): > 100 µM (inactive)
- GI50 (OVCAR-3): > 100 µM (inactive)
- GI50 (A498): > 100 µM (inactive)
- GI50 (K562): > 100 µM (inactive)
- GI50 (U-251): > 100 µM (inactive)
- GI50 (OVCAR-4): 23.3 µM (inactive)
- GI50 (SW-620): > 100 µM (inactive)
- GI50 (OVCAR-8): > 100 µM (inactive)
- GI50 (IGROV-1): > 100 µM (inactive)
- GI50 (NCI-H23): > 100 µM (inactive)
- GI50 (HT-29): 80.9 µM (inactive)
- GI50 (PC-3): > 100 µM (inactive)
- GI50 (CCRF-CEM): > 100 µM (inactive)
- GI50 (TK-10): > 100 µM (inactive)

Compound: COC(=O)CCc1ccc(CCC(=O)OC)cc1
- GI50 (NCI-H522): > 100 µM (inactive)
- GI50 (Malme-3M): > 100 µM (inactive)
- GI50 (SF-295): > 100 µM (inactive)
- GI50 (SNB-75): > 100 µM (inactive)
- GI50 (OVCAR-3): > 100 µM (inactive)
- GI50 (M14): > 100 µM (inactive)
- GI50 (A498): > 100 µM (inactive)
- GI50 (SF-268): > 100 µM (inactive)
- GI50 (K562): > 100 µM (inactive)
- GI50 (U-251): > 100 µM (inactive)
- GI50 (OVCAR-4): > 100 µM (inactive)
- GI50 (SW-620): > 100 µM (inactive)
- GI50 (OVCAR-8): > 100 µM (inactive)
- GI50 (IGROV-1): > 100 µM (inactive)
- GI50 (NCI-H23): > 100 µM (inactive)
- GI50 (HT-29): > 100 µM (inactive)
- GI50 (PC-3): > 100 µM (inactive)
- GI50 (CCRF-CEM): > 100 µM (inactive)
- GI50 (TK-10): > 100 µM (inactive)

Compound: Oc1cc(-c2cccc3ccccc23)nc2ncccc12
- GI50 (NCI-H522): 0.0201 µM (active)
- GI50 (Malme-3M): 0.00225 µM (active)
- GI50 (SF-295): 0.0388 µM (active)
- GI50 (SNB-75): 0.00684 µM (active)
- GI50 (OVCAR-3): 0.00457 µM (active)
- GI50 (M14): 0.0159 µM (active)
- GI50 (A498): 0.0206 µM (active)
- GI50 (SF-268): 0.0201 µM (active)
- GI50 (K562): 0.00525 µM (active)
- GI50 (U-251): 0.0211 µM (active)
- GI50 (OVCAR-4): 0.0542 µM (active)
- GI50 (SW-620): 0.0344 µM (active)
- GI50 (OVCAR-8): 0.05 µM (active)
- GI50 (IGROV-1): 0.0611 µM (active)
- GI50 (NCI-H23): 0.035 µM (active)
- GI50 (HT-29): 0.0173 µM (active)
- GI50 (PC-3): 0.0182 µM (active)
- GI50 (CCRF-CEM): 0.0245 µM (active)
- GI50 (SN12C): 0.09 µM (active)

Compound: CN(C)S(=O)(=O)n1cnc(CO)c1
- GI50 (NCI-H522): > 100 µM (inactive)
- GI50 (Malme-3M): > 100 µM (inactive)
- GI50 (SF-295): > 100 µM (inactive)
- GI50 (SNB-75): > 100 µM (inactive)
- GI50 (OVCAR-3): > 100 µM (inactive)
- GI50 (M14): > 100 µM (inactive)
- GI50 (A498): > 100 µM (inactive)
- GI50 (SF-268): > 100 µM (inactive)
- GI50 (K562): > 100 µM (inactive)
- GI50 (U-251): > 100 µM (inactive)
- GI50 (OVCAR-4): > 100 µM (inactive)
- GI50 (SW-620): > 100 µM (inactive)
- GI50 (IGROV-1): > 100 µM (inactive)
- GI50 (NCI-H23): > 100 µM (inactive)
- GI50 (PC-3): > 100 µM (inactive)
- GI50 (SN12C): > 100 µM (inactive)
- GI50 (TK-10): > 100 µM (inactive)

Reference: ChEMBL document CHEMBL1201862, “PubChem BioAssay data set” (2004)
